How the values were obtained:
Type in all cases: in vivo
[1] = test system: pro-inflammatory cytokines (IL1β, IL6, TNFα, IFNγ); assay: Pro-inflammatory cytokines measurement in brain areas (ECL-based assay); conditions: corticosterone-treated mice, chronic AdipoRon
Method: Data were digitized at 5-10 kHz using a Digidata interface coupled to a microcomputer running pClamp 9 (Axon Instruments, USA). Current-clamp data were digitized at 0.5 kHz using the same interface. Potentials were digitally filtered at 1-3 kHz. Average data were expressed as mean ± SEM, n = number of neurons, N = number of mice. • Western blot analysis - Total proteins were extracted from mouse hypothalamus by homogenization in lysis buffer (50mM Tris-HCl, pH7.5, 150mM NaCl, 5mM EDTA containing 0.5% Triton X-100 and 0.5% sodium deoxycholate with a coktail of protease and phosphatase inhibitors). Equal amounts of total proteins (50µg) determined by the Bradford method (BioRad) were separated onto 12% SDS-PAGE, then transferred on nitrocellulose membrane (Schleicher & Schuell, Dassel, Germany). Blots were incubated in PBS 0.1% Tween, 2% BSA with antibodies directed against phospho-AMPKα (Thr172), total AMPK (Cell Signaling), and then with the appropriate HRP-secondary antibody. […] IFNγ, IL1β, IL6, and TNFα, levels were measured using an electro-chemo-luminescence (ECL)-based assay (U-plex, MesoScaleDiscovery) following manufacturer instructions. Results were standardized according to the protein concentration of each sample determined by the Bradford method. • Kynurenine pathway metabolites measurement - Plasma levels of L-kynurenin (L-Kyn), tryptophan (Trp), kynurenin acid (Kyn ac), 5-HT and 5-HIAA were determined as follows: 25µl of plasma was deproteinated with 150µl of cold MeOH. […] Determination of L-Kyn, Trp, Kyn ac, 5-HT and 5-HIAA levels, done in triplicate, were determined by liquid chromatography coupled to MS-MS analysis as previously described with minor modifications (Fuertig, Ceci et al. 2016). • Statistical Analysis - Statistical analyses were performed using GraphPad Prism 4.0 software. Biological parameters and q-PCR data were analyzed using a one-way (treatment) or two-way (pretreatment X treatment) analysis of variance, followed by a post-hoc multiple comparison procedure using the Dunnett's method. […]

[2] = test system: wt mice; assay: Rotarod, motor coordination; conditions: chronic ip 1mg/kg for twenty consecutive days
Method: (§1) All behavioral testing were conducted during the light phase (between 09:00 and 14:00 am) in compliance with the Institutional Animal Care and Use Committee of the University of Nice-Sophia Antipolis (permission number 010344.01 from the French "Ministère de l'Enseignement Supérieur et de la Recherche" granted to Dr. Joëlle Chabry). • Forced Swimming test (FST) - Mice were placed an inescapable transparent tank (20cm diameter, 30cm deep) filled with water (23°C ± 0.5) for six minutes as previously described by Porsolt et al. (1977). The immobility duration, as an index of the resignation, was timed during the last four minutes of the test. A mouse was considered immobile when it remained floating with only slight movements to keep its head out of the water. • Open-field test (OF) - Locomotor activity was determined using open-field (OF) activity. […] Twenty-four hours later, the latency to fall, an index of the motor coordination, was recorded on accelerating rod (from 10 to 40 rpm/min). • Light & Dark test (L&D) - The L&D place preference test was used to assess the anxiety-like behavior. […] To initiate testing, mice were placed into the light side and activity was recorded for 5 minutes. […] The amount of water and 1% sucrose solution was measured twenty-four hours later. […]

[3] = test system: wt mice; assay: Open-field test (OF), locomotor activity; conditions: chronic ip 1mg/kg for twenty consecutive days, 10 minutes recording
Method: as §1

SMILES: O=C(COc1ccc(C(=O)c2ccccc2)cc1)NC1CCN(Cc2ccccc2)CC1 [AdipoRon, 2-(4-Benzoylphenoxy)-N-[1-(phenylmethyl)-4-piperidinyl]-acetamide]
- corticosterone-induced cytokines differences (IFNγ) ([1]; hippocampus): abolished
- corticosterone-induced cytokines differences (IL1β, TNFα, IFNγ) ([1]; hypothalamus): abolished
- corticosterone-induced cytokines differences (IL1β, IL6, TNFα) ([1]; prefrontal cortex): abolished
- motor coordination (rotarod) [2]: did not significantly modify
- mean speed in the OF test [3]: did not significantly modify
- total distance traveled in the OF test [3]: did not significantly modify
